Assay results taken from patent publication US9452986B2, “6-heteroaryloxy- or 6-aryloxy-quinoline-2-carboxamides and method of use” (AbbVie Inc., priority 2014, dated 2016).
Read-outs that look alike come from different tables or passages of the source.

Legend:
[1] = test system: spinal nerve ligated rats; assay: Rat spinal nerve ligation (SNL) model of neuropathic pain, paw withdrawal threshold; type: in vivo; details: read-out: SNL MPE
Excerpt: Rat Spinal Nerve Ligation (SNL) Model of Neuropathic Pain.
The male Sprague Dawley rats (Charles River Laboratories, Wilmington, Mass.), weighing 150-175 g at the time of surgery, were placed under isoflurane anesthesia and a 1.5 cm incision was made dorsal to the lumbosacral plexus. The paraspinal muscles (left side) were separated from the spinous processes, the left L5 and L6 spinal nerves isolated, and tightly ligated with 5-0 silk suture distal to the dorsal root ganglion. Care was taken to avoid ligating the L4 spinal nerve. Following spinal nerve ligation, a minimum of 7 days of recovery and no more than 3 weeks was allowed prior to the behavioral testing (mechanical sensitivity). Only rats with threshold scores ≦4.5 g were considered allodynic and utilized in pharmacological experiments.
Mechanical sensitivity was measured using calibrated von Frey filaments (Stoelting, Wood Dale, Ill.). […] The von Frey filaments were presented perpendicularly to the plantar surface of the selected hind paw, and then held in this position for approximately 8 seconds with enough force to cause a slight bend in the filament. Positive responses included an abrupt withdrawal of the hind paw from the stimulus, or flinching behavior immediately following removal of the stimulus. […] A percent maximal possible effect (% MPE) of testing compound was calculated according to the formula: (Log [compound−treated threshold]−Log [vehicle−treated threshold])/(Log [maximum threshold]−Log [vehicle−treated threshold])×100%, where the maximum threshold was equal to 15 g.
The animals were housed in Association for Assessment and Accreditation of Laboratory Animal Care (AAALAC) approved facilities at AbbVie Inc. in a temperature-regulated environment under a controlled 12-hour light-dark cycle, with lights on at 6:00 a.m. Food and water were available ad libitum at all times except during testing. All testing was done following procedures outlined in protocols approved by AbbVie Inc.s' Institutional Animal Care and Use Committee.

osteoarthritic rats = assay: Osteoarthritic (OA) pain induced by sodium monoiodoacetate (MIA), hind limb grip force; type: in vivo, rat; details: for inhibition in vivo at 30 mg/kg / inhibition in vivo at 10 mg/kg: Rattus norvegicus, 480 h, read-out: OA MPE; for inhibition in vivo at 10 mg/kg: OA dose 10 mg/kg
Summary of the method: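 Male Sprague Dawley rats (150-175 g) received a single unilateral intra-articular knee injection of MIA (3 mg/rat) and were tested 20 days later. Peak hind limb grip force (CFmax, g force/kg body weight, mean of two trials) was scored blinded. % effect set vehicle as 0% and age-matched naïve rats as 100%.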

recombinant human Nav1.7 = recombinant human Nav1.7 (Homo sapiens (Human), UniProt Q15858); assay: FRET-based membrane potential assay, recombinant human sodium channel Nav1.7; type: cell-based; details: read-out: FRET-Membrane Potential Nav1.7 IC50
Sequence of recombinant human Nav1.7 (Q15858 whole entry): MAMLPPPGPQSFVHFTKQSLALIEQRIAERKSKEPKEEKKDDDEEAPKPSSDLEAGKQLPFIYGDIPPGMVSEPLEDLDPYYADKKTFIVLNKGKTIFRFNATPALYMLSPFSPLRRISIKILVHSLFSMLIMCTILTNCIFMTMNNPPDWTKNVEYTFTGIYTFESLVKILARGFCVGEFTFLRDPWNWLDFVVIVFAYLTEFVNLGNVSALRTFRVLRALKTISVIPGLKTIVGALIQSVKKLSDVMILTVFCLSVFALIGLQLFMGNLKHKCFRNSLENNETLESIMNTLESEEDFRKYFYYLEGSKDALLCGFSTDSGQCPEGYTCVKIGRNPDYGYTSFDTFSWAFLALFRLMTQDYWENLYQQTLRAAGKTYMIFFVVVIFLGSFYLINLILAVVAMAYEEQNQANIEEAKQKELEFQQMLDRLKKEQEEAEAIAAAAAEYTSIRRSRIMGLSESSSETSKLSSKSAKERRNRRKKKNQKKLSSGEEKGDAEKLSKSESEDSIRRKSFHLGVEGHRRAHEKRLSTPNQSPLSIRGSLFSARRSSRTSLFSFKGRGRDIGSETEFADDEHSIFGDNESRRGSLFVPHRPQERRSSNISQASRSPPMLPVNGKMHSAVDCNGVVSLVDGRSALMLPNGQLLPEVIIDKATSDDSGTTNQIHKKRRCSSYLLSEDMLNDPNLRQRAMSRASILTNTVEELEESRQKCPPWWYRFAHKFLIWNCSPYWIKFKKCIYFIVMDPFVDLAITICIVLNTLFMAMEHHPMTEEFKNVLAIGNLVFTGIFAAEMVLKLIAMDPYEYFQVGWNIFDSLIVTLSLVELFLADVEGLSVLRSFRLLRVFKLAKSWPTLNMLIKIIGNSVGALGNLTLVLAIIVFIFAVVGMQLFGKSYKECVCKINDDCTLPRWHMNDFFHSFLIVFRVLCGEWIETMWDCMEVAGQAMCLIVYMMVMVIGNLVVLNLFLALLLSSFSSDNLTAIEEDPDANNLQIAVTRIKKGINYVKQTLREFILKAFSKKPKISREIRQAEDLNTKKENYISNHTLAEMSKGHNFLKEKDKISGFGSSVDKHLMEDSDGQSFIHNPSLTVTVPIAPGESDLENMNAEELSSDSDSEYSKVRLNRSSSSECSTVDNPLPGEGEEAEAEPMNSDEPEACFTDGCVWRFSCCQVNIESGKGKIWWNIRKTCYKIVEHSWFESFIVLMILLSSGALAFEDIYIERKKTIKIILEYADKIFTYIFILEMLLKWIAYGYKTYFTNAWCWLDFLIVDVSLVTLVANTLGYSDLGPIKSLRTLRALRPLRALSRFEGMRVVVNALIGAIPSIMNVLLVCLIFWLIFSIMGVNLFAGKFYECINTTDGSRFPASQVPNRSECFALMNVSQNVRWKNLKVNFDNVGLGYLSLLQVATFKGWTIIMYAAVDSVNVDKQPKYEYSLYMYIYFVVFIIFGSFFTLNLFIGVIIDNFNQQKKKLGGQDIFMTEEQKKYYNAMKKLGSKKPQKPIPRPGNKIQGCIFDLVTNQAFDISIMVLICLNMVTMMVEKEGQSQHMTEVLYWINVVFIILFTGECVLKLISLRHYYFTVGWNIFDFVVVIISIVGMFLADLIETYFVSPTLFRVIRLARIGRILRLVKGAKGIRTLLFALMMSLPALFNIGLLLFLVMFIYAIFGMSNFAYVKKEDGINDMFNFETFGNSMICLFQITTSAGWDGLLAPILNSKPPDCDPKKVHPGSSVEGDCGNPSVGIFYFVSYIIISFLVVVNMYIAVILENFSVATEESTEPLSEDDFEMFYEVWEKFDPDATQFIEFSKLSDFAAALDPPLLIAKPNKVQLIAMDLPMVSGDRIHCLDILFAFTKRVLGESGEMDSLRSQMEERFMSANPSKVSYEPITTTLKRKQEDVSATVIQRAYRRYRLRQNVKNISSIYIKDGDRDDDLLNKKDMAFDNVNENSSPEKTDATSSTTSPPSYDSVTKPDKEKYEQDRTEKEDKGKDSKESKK
Summary of the method: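 Channel activation used veratridine at its EC80, set by a dilution curve each experiment, together with Leiurus scorpion venom, added 3 min after compound. Membrane-potential ratio signals from FLIPR Tetra in HEPES-buffered HBSS were fitted to a four-parameter Hill equation for percent inhibition and IC50.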

recombinant human Nav1.8 = recombinant human Nav1.8 (Homo sapiens (Human), UniProt Q9Y5Y9); assay: FRET-based membrane potential assay, recombinant human sodium channel Nav1.8; type: cell-based
Sequence of recombinant human Nav1.8 (Q9Y5Y9 whole entry): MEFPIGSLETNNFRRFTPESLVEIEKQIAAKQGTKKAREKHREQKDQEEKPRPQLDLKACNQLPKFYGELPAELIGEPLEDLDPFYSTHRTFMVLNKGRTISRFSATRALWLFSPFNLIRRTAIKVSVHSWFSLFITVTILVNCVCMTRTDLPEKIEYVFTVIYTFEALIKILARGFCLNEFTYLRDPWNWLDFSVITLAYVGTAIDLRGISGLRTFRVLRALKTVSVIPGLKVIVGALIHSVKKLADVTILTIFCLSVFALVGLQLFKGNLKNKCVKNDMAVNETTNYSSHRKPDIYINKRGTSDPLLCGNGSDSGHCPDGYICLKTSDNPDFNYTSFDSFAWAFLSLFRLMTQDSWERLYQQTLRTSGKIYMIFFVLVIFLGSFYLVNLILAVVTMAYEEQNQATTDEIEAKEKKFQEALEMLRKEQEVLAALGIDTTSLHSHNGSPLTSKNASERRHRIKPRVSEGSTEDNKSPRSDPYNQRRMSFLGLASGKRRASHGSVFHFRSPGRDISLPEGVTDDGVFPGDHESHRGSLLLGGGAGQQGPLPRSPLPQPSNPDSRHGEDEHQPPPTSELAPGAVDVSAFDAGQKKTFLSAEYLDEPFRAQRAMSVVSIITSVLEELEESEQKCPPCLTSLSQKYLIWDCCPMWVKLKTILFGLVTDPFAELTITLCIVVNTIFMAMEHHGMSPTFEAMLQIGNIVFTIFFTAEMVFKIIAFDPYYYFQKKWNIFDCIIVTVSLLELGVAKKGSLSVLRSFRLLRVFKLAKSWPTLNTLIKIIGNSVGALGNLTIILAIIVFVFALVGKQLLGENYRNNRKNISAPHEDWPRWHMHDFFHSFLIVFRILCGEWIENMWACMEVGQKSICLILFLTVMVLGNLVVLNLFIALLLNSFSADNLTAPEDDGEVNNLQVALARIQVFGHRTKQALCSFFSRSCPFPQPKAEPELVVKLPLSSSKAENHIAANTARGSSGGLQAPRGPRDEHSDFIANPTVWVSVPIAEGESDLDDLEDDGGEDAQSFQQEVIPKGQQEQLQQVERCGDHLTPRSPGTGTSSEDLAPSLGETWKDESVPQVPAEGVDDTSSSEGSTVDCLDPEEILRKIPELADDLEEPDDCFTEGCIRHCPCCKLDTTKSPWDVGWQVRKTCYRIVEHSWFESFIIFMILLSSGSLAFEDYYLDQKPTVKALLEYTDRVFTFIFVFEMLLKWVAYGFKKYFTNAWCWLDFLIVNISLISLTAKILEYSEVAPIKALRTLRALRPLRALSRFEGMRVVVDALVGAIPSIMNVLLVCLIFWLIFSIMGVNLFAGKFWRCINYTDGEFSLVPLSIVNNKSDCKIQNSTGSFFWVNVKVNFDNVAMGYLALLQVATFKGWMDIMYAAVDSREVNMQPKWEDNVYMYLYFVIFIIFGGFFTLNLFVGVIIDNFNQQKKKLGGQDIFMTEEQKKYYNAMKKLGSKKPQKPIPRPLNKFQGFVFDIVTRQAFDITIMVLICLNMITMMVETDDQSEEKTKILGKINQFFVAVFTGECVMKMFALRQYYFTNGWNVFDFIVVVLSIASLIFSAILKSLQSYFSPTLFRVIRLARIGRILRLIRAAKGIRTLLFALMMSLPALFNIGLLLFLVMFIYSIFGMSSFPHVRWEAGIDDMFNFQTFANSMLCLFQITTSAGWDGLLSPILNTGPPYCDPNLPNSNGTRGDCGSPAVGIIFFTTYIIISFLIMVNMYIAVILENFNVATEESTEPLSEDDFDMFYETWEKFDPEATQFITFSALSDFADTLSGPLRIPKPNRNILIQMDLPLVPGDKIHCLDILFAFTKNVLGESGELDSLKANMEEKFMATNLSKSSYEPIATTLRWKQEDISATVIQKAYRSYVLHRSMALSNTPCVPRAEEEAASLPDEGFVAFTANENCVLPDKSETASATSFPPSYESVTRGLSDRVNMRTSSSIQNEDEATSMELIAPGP

[2] = SNL dose 100 mg/kg, rat, von Frey paw withdrawal threshold
[3] = OA dose 30 mg/kg, rat, 20 days following MIA injection, hind limb grip force
[4] = HEK293 cells stably expressing recombinant human Nav1.7, veratridine + scorpion venom depolarization
[5] = HEK293 cells stably expressing recombinant human Nav1.8, veratridine + scorpion venom depolarization
[6] = rat, 20 days following MIA injection, hind limb grip force

| Structure (SMILES) | inhibition in vivo at 30 mg/kg (osteoarthritic rats; [3]) [%] | IC50 (recombinant human Nav1.7; [4]) [nM] | IC50 (recombinant human Nav1.8; [5]) [nM] | inhibition in vivo at 10 mg/kg (osteoarthritic rats; [6]) [%] | other results |
| --- | --- | --- | --- | --- | --- |
| O=C(c1ccc2cc(Oc3ccc(C(F)(F)F)cn3)ccc2n1)N1CCNCC1 [Example 1, piperazin-1-yl(6-{[5-(trifluoromethyl)pyridin-2-yl]oxy}quinolin-2-yl)methanone] | 64 | – | – | – | inhibition in vivo at 100 mg/kg [1, 2]: 49% |
| O=C(c1ccc2cc(Oc3ccc(C(F)(F)F)cn3)ccc2n1)N1CCCC1 [Example 10, pyrrolidin-1-yl(6-{[5-(trifluoromethyl)pyridin-2-yl]oxy}quinolin-2-yl)methanone] | – | – | – | – | inhibition in vivo at 100 mg/kg ([1]; Rattus norvegicus): 35%; inhibition in vivo at 30 mg/kg (osteoarthritic rats): 48% |
| O=C(c1ccc2cc(Oc3ccc(C(F)(F)F)cn3)ccc2n1)N1CC[C@H](F)C1 [Example 51, [(3S)-3-fluoropyrrolidin-1-yl](6-{[5-(trifluoromethyl)pyridin-2-yl]oxy}quinolin-2-yl)methanone] | 52 | 2250 | – | – | inhibition in vivo at 100 mg/kg [1, 2]: 90% |
| O=C(c1ccc2cc(Oc3ccc(C(F)F)cn3)ccc2n1)N1CCNCC1 [Example 14, (6-{[5-(difluoromethyl)pyridin-2-yl]oxy}quinolin-2-yl)(piperazin-1-yl)methanone] | 81 | – | – | – | inhibition in vivo at 100 mg/kg [1, 2]: 44% |
| CCN1CC(NC(=O)c2ccc3cc(Oc4ccc(C(F)(F)F)cn4)ccc3n2)CC1=O (stereo not drawn) [Example 45, N-(1-ethyl-5-oxopyrrolidin-3-yl)-6-{[5-(trifluoromethyl)pyridin-2-yl]oxy}quinoline-2-carboxamide] | 17 | 325 | 468 | – | – |
| O=C(c1ccc2cc(Oc3ccc(C(F)(F)F)cn3)ccc2n1)N1CC[C@@H](F)C1 [Example 52, [(3R)-3-fluoropyrrolidin-1-yl](6-{[5-(trifluoromethyl)pyridin-2-yl]oxy}quinolin-2-yl)methanone] | 86 | 2980 | – | – | inhibition in vivo at 100 mg/kg [1, 2]: 81% |
| COC[C@@H]1CN(C(=O)c2ccc3cc(Oc4ccc(C(F)(F)F)nc4)ccc3n2)CCN1 [Example 64, [(3S)-3-(methoxymethyl)piperazin-1-yl](6-{[6-(trifluoromethyl)pyridin-3-yl]oxy}quinolin-2-yl)methanone] | – | 382 | – | 29 | IC50 (recombinant human Nav1.8): 491 nM |
| O=C(c1ccc2cc(Oc3ccc(C(F)(F)F)cn3)ccc2n1)N1CCNC(C(F)(F)F)C1 (stereo not drawn) [Example 20, [3-(trifluoromethyl)piperazin-1-yl](6-{[5-(trifluoromethyl)pyridin-2-yl]oxy}quinolin-2-yl)methanone] | – | 10500 | 3230 | 24 | – |
| O=C(N[C@H]1CCS(=O)(=O)C1)c1ccc2cc(Oc3ccc(C(F)(F)F)cn3)ccc2n1 [Example 4, N-[(3S)-1,1-dioxidotetrahydrothiophen-3-yl]-6-{[5-(trifluoromethyl)pyridin-2-yl]oxy}quinoline-2-carboxamide] | 60 | 856 | – | – | inhibition in vivo at 100 mg/kg [1, 2]: 56% |
| NC1CN(C(=O)c2ccc3cc(Oc4ccc(C(F)(F)F)nc4)ccc3n2)C1 [Example 66, (3-amino azetidin-1-yl)(6-{[6-(trifluoromethyl)pyridin-3-yl]oxy}quinolin-2-yl)methanone] | 52 | 883 | – | – | IC50 (recombinant human Nav1.8): 1180 nM |
| CN1CC(NC(=O)c2ccc3cc(Oc4ccc(C(F)(F)F)cn4)ccc3n2)CC1=O (single isomer, unassigned) [Example 74, N-[(3S*)-1-methyl-5-oxopyrrolidin-3-yl]-6-{[5-(trifluoromethyl)pyridin-2-yl]oxy}quinoline-2-carboxamide] | – | 863 | 1880 | – | OA MPE (osteoarthritic rats; [3]): 69% |
| O=C(NCC(F)(F)F)c1ccc2cc(Oc3ccc(C(F)F)cn3)ccc2n1 [Example 436, 6-{[5-(difluoromethyl)pyridin-2-yl]oxy}-N-(2,2,2-trifluoroethyl)quinoline-2-carboxamide] | 51 | 1740 | 3420 | – | – |
| O=C(NC1CCC(F)(F)CC1)c1ccc2cc(Oc3ccc(C(F)(F)F)cn3)ccc2n1 [Example 23, N-(4,4-difluorocyclohexyl)-6-{[5-(trifluoromethyl)pyridin-2-yl]oxy}quinoline-2-carboxamide] | 83 | 1450 | > 20000 | – | – |
| O=C(c1ccc2cc(Oc3ccc(C(F)(F)F)cn3)ccc2n1)N1CCN2CC(F)(F)C[C@H]2C1 [Example 53, [(8aS)-7,7-difluorohexahydropyrrolo[1,2-a]pyrazin-2(1H)-yl](6-{[5-(trifluoromethyl)pyridin-2-yl]oxy}quinolin-2-yl)methanone] | 70 | 3260 | 11000 | – | – |
| N[C@@H]1[C@H]2CN(C(=O)c3ccc4cc(Oc5ccc(C(F)F)cn5)ccc4n3)C[C@@H]12 [Example 49, meso-[(1R,5S,6s)-6-amino-3-azabicyclo[3.1.0]hex-3-yl](6-{[5-(difluoromethyl)pyridin-2-yl]oxy}quinolin-2-yl)methanone] | – | 2270 | 702 | – | OA MPE (osteoarthritic rats; [3]): 58% |
| O=C(c1ccc2cc(Oc3ccc(C(F)(F)F)cn3)ccc2n1)N1CCN(C2CCC2)CC1 [Example 47, (4-cyclobutylpiperazin-1-yl)(6-{[5-(trifluoromethyl)pyridin-2-yl]oxy}quinolin-2-yl)methanone] | – | – | 334 | 30 | IC50 (recombinant human Nav1.7): 1420 nM |
| O=C(c1ccc2cc(Oc3ccc(C(F)(F)F)cn3)ccc2n1)N1CCC12COC2 [Example 505, 6-oxa-1-azaspiro[3.3]hept-1-yl(6-{[5-(trifluoromethyl)pyridin-2-yl]oxy}quinolin-2-yl)methanone] | – | 4940 | 2300 | – | inhibition in vivo at 30 mg/kg (osteoarthritic rats): 52% |
| COC[C@@H]1CN(C(=O)c2ccc3cc(Oc4ccc(C(F)F)cn4)ccc3n2)CCN1 [Example 69, (6-{[5-(difluoromethyl)pyridin-2-yl]oxy}quinolin-2-yl)[(3S)-3-(methoxymethyl)piperazin-1-yl]methanone] | – | 895 | 2320 | 2 | – |
| O=C(c1ccc2cc(Oc3ccc(C(F)(F)F)cn3)ccc2n1)N1CC(N2CC[C@@H](F)C2)C1 [Example 70, {3-[(3R)-3-fluoropyrrolidin-1-yl]azetidin-1-yl}(6-{[5-(trifluoromethyl)pyridin-2-yl]oxy}quinolin-2-yl)methanone] | – | – | – | 23 | IC50 (recombinant human Nav1.7): 1250 nM; IC50 (recombinant human Nav1.8): 821 nM |
| O=C(c1ccc2cc(Oc3ccc(OC(F)F)cn3)ccc2n1)N1CCNCC1 [Example 57, (6-{[5-(difluoromethoxy)pyridin-2-yl]oxy}quinolin-2-yl)(piperazin-1-yl)methanone] | 53 | 3190 | 870 | – | – |
| CCN1CC(NC(=O)c2ccc3cc(Oc4ccc(C(F)F)cn4)ccc3n2)CC1=O (stereo not drawn) [Example 46, 6-{[5-(difluoromethyl)pyridin-2-yl]oxy}-N-(1-ethyl-5-oxopyrrolidin-3-yl)quinoline-2-carboxamide] | 98 | 344 | 501 | – | – |
| C[C@@H]1CN(C(=O)c2ccc3cc(Oc4ccc(C(F)F)cn4)ccc3n2)CCN1 [Example 68, (6-{[5-(difluoromethyl)pyridin-2-yl]oxy}quinolin-2-yl) [(3R)-3-methylpiperazin-1-yl]methanone] | – | 1210 | 1890 | 52 | – |
| C[C@@H]1CN(C(=O)c2ccc3cc(Oc4ccc(C(F)(F)F)nc4)ccc3n2)CCN1 [Example 62, [(3R)-3-methylpiperazin-1-yl](6-{[6-(trifluoromethyl)pyridin-3-yl]oxy}quinolin-2-yl)methanone] | – | 500 | 120 | -1 | – |
